# Measurements from patent US12187701B2, “Taire family kinase inhibitors and uses thereof” (Dana-Farber Cancer Institute, Inc., priority 2018, dated 2025).
# Like-named read-outs stand apart in the source and are kept apart here.
# How the values were obtained:
# HCT116 cells = experiment: Antiproliferation assay, Cell Titer Glo, 72 hours; type: cell-based
# Description: HCT116 cells were plated in 384-well plates at 750 cells/well in 50 ul fresh media (McCoy's 5A+10% FBS+1% Penn/Strep) and treated with 0.1 μl candidate compounds in four-fold dilution series using the Janus pinner. Cells were incubated with compounds for 72 hours in 37° C. 5% CO2. Anti-proliferative effects of these compounds were assessed 72 hours after compound addition using Cell Titer Glo (Promega cat #G7571) as described in product manual by luminescence measurements using an Envision platereader. All proliferation assays were performed in biological quadruplicate. IC50 values were determined using a non-linear regression curve fit in GraphPad Prism 6.
# Cdk14/CycY = Cdk14/CycY (Homo sapiens (Human), UniProt O94921); experiment: Lanthascreen Eu kinase binding assay for Cdk14/CycY with 30 minute pre-incubation; settings: 30 minute pre-incubation of kinase with compound; read-out: IC50 CDK14 binding by Lanthascreen
# Description: Lanthascreen Eu kinase binding assays were conducted for Cdk14/CycY largely as performed in the commercial assay service by Life Technologies, but included a 30 minute pre-incubation step of the kinase with candidate compounds to facilitate covalent bond formation.
# Cdk14/CycY, sequence (O94921 whole entry): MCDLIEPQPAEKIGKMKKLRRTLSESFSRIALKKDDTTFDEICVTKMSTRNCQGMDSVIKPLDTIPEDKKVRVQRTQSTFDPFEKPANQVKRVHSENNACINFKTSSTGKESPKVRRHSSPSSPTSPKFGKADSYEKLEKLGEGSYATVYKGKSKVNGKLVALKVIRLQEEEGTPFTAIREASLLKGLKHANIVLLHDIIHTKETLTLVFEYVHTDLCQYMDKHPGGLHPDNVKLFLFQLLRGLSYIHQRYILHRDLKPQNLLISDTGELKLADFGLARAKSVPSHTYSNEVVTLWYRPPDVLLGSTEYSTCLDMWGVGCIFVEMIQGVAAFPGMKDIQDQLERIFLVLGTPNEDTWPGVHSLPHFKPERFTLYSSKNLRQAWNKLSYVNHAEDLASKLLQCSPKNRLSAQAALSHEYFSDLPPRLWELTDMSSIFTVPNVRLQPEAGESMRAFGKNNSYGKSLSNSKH
# Cdk14/CycY, sequence (Q8ND76 whole entry partner): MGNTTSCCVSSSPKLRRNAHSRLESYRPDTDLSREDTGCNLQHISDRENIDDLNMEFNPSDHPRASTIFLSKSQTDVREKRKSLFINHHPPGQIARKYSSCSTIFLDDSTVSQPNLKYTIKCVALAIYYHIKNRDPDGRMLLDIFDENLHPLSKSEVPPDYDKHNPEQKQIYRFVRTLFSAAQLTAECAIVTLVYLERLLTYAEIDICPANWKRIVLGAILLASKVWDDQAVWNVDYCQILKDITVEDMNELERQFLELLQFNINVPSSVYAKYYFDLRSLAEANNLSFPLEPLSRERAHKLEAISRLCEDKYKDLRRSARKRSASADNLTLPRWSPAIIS
SMILES,IC50 (HCT116 cells),IC50 (Cdk14/CycY),"IC50 (HCT116 cells; Homo sapiens, HCT-116, 72 h)"
"C=CC(=O)Nc1cccc(N2CCC(NC(=O)c3n[nH]cc3NC(=O)c3c(Cl)cccc3Cl)C2)c1 (stereo in doubt) [FMF-05-086-1, (S)—N-(1-(3-acrylamidophenyl)pyrrolidin-3-yl)-4-(2,6-dichlorobenzamido)-1H-pyrazole-3-carboxamide]",0.826 µM,1.1 µM,–
"C=CC(=O)N1CCC(NC(=O)c2n[nH]cc2NC(=O)c2c(Cl)cccc2Cl)CC1 [FMF-03-177-1, N-(1-acryloylpiperidin-4-yl)-4-(2,6-dichlorobenzamido)-1H-pyrazole-3-carboxamide]",–,0.401 µM,0.341 µM
"CN(C)C/C=C/C(=O)N1CCC(NC(=O)c2n[nH]cc2NC(=O)c2c(Cl)cccc2Cl)CC1 [FMF-03-177-2, (E)-4-(2,6-dichlorobenzamido)-N-(1-(4-(dimethylamino)but-2-enoyl)piperidin-4-yl)-1H-pyrazole-3-carboxamide]",–,0.208 µM,1.06 µM
"C=CC(=O)Nc1ccc(NC(=O)c2n[nH]cc2NC(=O)c2c(Cl)cccc2Cl)cc1 [FMF-03-182-1, N-(4-acrylamidophenyl)-4-(2,6-dichlorobenzamido)-1H-pyrazole-3-carboxamide]",–,> 1 µM,0.017 µM
"CN(C)C/C=C/C(=O)Nc1ccc(NC(=O)c2n[nH]cc2NC(=O)c2c(Cl)cccc2Cl)cc1 [FMF-03-182-2, (E)-4-(2,6-dichlorobenzamido)-N-(4-(4-(dimethylamino)but-2-enamido)phenyl)-1H-pyrazole-3-carboxamide]",–,0.082 µM,0.395 µM
"C=CC(=O)N1CCC[C@@H](NC(=O)c2n[nH]cc2NC(=O)c2c(Cl)cccc2Cl)C1 [FMF-03-183-1, (R)—N-(1-acryloylpiperidin-3-yl)-4-(2,6-dichlorobenzamido)-1H-pyrazole-3-carboxamide]",–,0.569 µM,0.039 µM
"CN(C)C/C=C/C(=O)N1CCC[C@@H](NC(=O)c2n[nH]cc2NC(=O)c2c(Cl)cccc2Cl)C1 [FMF-03-183-2, (R,E)-4-(2,6-dichlorobenzamido)-N-(1-(4-(dimethylamino)but-2-enoyl)piperidin-3-yl)-1H-pyrazole-3-carboxamide]",–,0.148 µM,0.157 µM
"C=CC(=O)N1CCC[C@H](NC(=O)c2n[nH]cc2NC(=O)c2c(Cl)cccc2Cl)C1 [FMF-03-184-1, (S)—N-(1-acryloylpiperidin-3-yl)-4-(2,6-dichlorobenzamido)-1H-pyrazole-3-carboxamide]",–,0.479 µM,0.737 µM
"CN(C)C/C=C/C(=O)N1CCC[C@H](NC(=O)c2n[nH]cc2NC(=O)c2c(Cl)cccc2Cl)C1 [FMF-03-184-2, (S,E)-4-(2,6-dichlorobenzamido)-N-(1-(4-(dimethylamino)but-2-enoyl)piperidin-3-yl)-1H-pyrazole-3-carboxamide]",–,0.976 µM,1.34 µM
"C=CC(=O)Nc1ccc(C(=O)N2CCC(NC(=O)c3n[nH]cc3NC(=O)c3c(Cl)cccc3Cl)CC2)cc1 [FMF-03-186-1, N-(1-(4-acrylamidobenzoyl)piperidin-4-yl)-4-(2,6-dichlorobenzamido)-1H-pyrazole-3-carboxamide]",–,0.126 µM,0.042 µM
"CN(C)C/C=C/C(=O)Nc1ccc(C(=O)N2CCC(NC(=O)c3n[nH]cc3NC(=O)c3c(Cl)cccc3Cl)CC2)cc1 [FMF-03-187-1, (E)-4-(2,6-dichlorobenzamido)-N-(1-(4-(4-(dimethylamino)but-2-enamido)benzoyl)piperidin-4-yl)-1H-pyrazole-3-carboxamide]",–,0.082 µM,0.071 µM
"C=CC(=O)Nc1cccc(NC(=O)c2n[nH]cc2NC(=O)c2c(Cl)cccc2Cl)c1 [FMF-03-188-1, N-(3-acrylamidophenyl)-4-(2,6-dichlorobenzamido)-1H-pyrazole-3-carboxamide]",–,> 1 µM,0.169 µM
"CN(C)C/C=C/C(=O)Nc1cccc(NC(=O)c2n[nH]cc2NC(=O)c2c(Cl)cccc2Cl)c1 [FMF-03-188-2, (E)-4-(2,6-dichlorobenzamido)-N-(3-(4-(dimethylamino)but-2-enamido)phenyl)-1H-pyrazole-3-carboxamide]",–,0.088 µM,0.723 µM
"CN(C)C/C=C/C(=O)Nc1cccc(C(=O)N2CCC(NC(=O)c3n[nH]cc3NC(=O)c3c(Cl)cccc3Cl)CC2)c1 [FMF-03-196-2, (E)-4-(2,6-dichlorobenzamido)-N-(1-(3-(4-(dimethylamino)but-2-enamido)benzoyl)piperidin-4-yl)-1H-pyrazole-3-carboxamide]",–,0.077 µM,0.485 µM
"C=CC(=O)Nc1ccc(S(=O)(=O)N2CCC(NC(=O)c3n[nH]cc3NC(=O)c3c(Cl)cccc3Cl)CC2)cc1 [FMF-03-197-1, N-(1-((4-acrylamidophenyl)sulfonyl)piperidin-4-yl)-4-(2,6-dichlorobenzamido)-1H-pyrazole-3-carboxamide]",–,0.062 µM,0.031 µM
"C=CC(=O)Nc1ccc(CN2CCC(NC(=O)c3n[nH]cc3NC(=O)c3c(Cl)cccc3Cl)CC2)cc1 [FMF-03-199-1, N-(1-(4-acrylamidobenzyl)piperidin-4-yl)-4-(2,6-dichlorobenzamido)-1H-pyrazole-3-carboxamide]",–,0.01 µM,< 0.0001 µM
"C=CC(=O)Nc1cccc(CN2CCC(NC(=O)c3n[nH]cc3NC(=O)c3c(Cl)cccc3Cl)CC2)c1 [FMF-03-200-1, N-(1-(3-acrylamidobenzyl)piperidin-4-yl)-4-(2,6-dichlorobenzamido)-1H-pyrazole-3-carboxamide]",–,–,0.0009 µM
"CN(C)C/C=C/C(=O)Nc1ccc(S(=O)(=O)N2CCC[C@@H](NC(=O)c3n[nH]cc3NC(=O)c3c(Cl)cccc3Cl)C2)cc1 [FMF-04-056-2, (R,E)-4-(2,6-dichlorobenzamido)-N-(1-((4-(4-(dimethylamino)but-2-enamido)phenyl)sulfonyl)piperidin-3-yl)-1H-pyrazole-3-carboxamide]",–,–,> 10 µM
"C=CC(=O)Nc1cccc(C(=O)Nc2ccc(NC(=O)c3n[nH]cc3NC(=O)c3c(Cl)cccc3Cl)c(C)c2)c1 [FMF-04-085-1, N-(4-(3-acrylamidobenzamido)-2-methylphenyl)-4-(2,6-dichlorobenzamido)-1H-pyrazole-3-carboxamide]",–,> 1 µM,–
"C=CC(=O)Nc1cccc(S(=O)(=O)N2CCC(NC(=O)c3n[nH]cc3NC(=O)c3c(Cl)cccc3OC)CC2)c1 [FMF-04-107-1, N-(1-((3-acrylamidophenyl)sulfonyl)piperidin-4-yl)-4-(2-chloro-6-methoxybenzamido)-1H-pyrazole-3-carboxamide]",–,–,0.115 µM
CN(/C=C/C(=O)Nc1cccc(CN2CCC(NC(=O)c3n[nH]cc3NC(=O)c3c(Cl)cccc3Cl)CC2)c1)CCCCC1C[C@@H]2NC(=O)N[C@@H]2S1 (some centres unmarked) [FMF-04-131-1],–,0.049 µM,–
"CN(C/C=C/C(=O)Nc1cccc(S(=O)(=O)N2CCC(NC(=O)c3n[nH]cc3NC(=O)c3c(Cl)cccc3Cl)CC2)c1)CCC(=O)NCCOCCOCCOCCNC(=O)CCCC[C@@H]1SC[C@@H]2NC(=O)N[C@@H]21 [FMF-04-153-1, 4-(2,6-dichlorobenzamido)-N-(1-((3-((E)-5-methyl-8,22-dioxo-26-((3aS,4S,6aR)-2-oxohexahydro-1H-thieno[3,4-d]imidazol-4-yl)-12,15,18-trioxa-5,9,21-triazahexacos-2-enamido)phenyl)sulfonyl)piperidin-4-yl)-1H-pyrazole-3-carboxamide]",–,0.008 µM,–
"CN(C)C/C=C/C(=O)Nc1cccc(CN2CCC(NC(=O)c3n[nH]cc3NC(=O)c3c(Cl)cc(Cl)cc3Cl)CC2)c1 [FMF-04-158-2, (E)-N-(1-(3-(4-(dimethylamino)but-2-enamido)benzyl)piperidin-4-yl)-4-(2,4,6-trichlorobenzamido)-1H-pyrazole-3-carboxamide]",–,–,0.156 µM
"C=CC(=O)Nc1cccc(S(=O)(=O)N2CCC(NC(=O)c3nn(C)cc3NC(=O)c3c(Cl)cccc3Cl)CC2)c1 [FMF-04-180-1, N-(1-((3-acrylamidophenyl)sulfonyl)piperidin-4-yl)-4-(2,6-dichlorobenzamido)-1-methyl-1H-pyrazole-3-carboxamide]",–,–,9 µM
"CN(C)C/C=C/C(=O)Nc1cccc(S(=O)(=O)N2CCC(NC(=O)c3nn(C)cc3NC(=O)c3c(Cl)cccc3Cl)CC2)c1 [FMF-04-180-2, (E)-4-(2,6-dichlorobenzamido)-N-(1-((3-(4-(dimethylamino)but-2-enamido)phenyl)sulfonyl)piperidin-4-yl)-1-methyl-1H-pyrazole-3-carboxamide]",–,–,> 10 µM
"COc1cccc(Cl)c1C(=O)Nc1c[nH]nc1C(=O)NC1CCN(S(=O)(=O)c2cccc(NC(=O)/C=C/CN(C)CCC(=O)NCCOCCOCCOCCNC(=O)CCCCC[C@H]3NC(=O)N[C@H]3C)c2)CC1 [FMF-05-035-1, 4-(2-chloro-6-methoxybenzamido)-N-(1-((3-((E)-5-methyl-27-((4R,5S)—5-methyl-2-oxoimidazolidin-4-yl)-8,22-dioxo-12,15,18-trioxa-5,9,21-triazaheptacos-2-enamido)phenyl)sulfonyl)piperidin-4-yl)-1H-pyrazole-3-carboxamide]",–,0.046 µM,–
"CN(C)C/C=C/C(=O)Nc1cccc(CNC(=O)c2n[nH]cc2NC(=O)c2c(Cl)cccc2Cl)c1 [FMF-05-067-2, (E)-4-(2,6-dichlorobenzamido)-N-(3-(4-(dimethylamino)but-2-enamido)benzyl)-1H-pyrazole-3-carboxamide]",–,–,> 10 µM
"C=CC(=O)Nc1cccc(N2CCC(NC(=O)c3n[nH]cc3NC(=O)c3c(Cl)cccc3Cl)CC2)c1 [FMF-05-085-1, N-(1-(3-acrylamidophenyl)piperidin-4-yl)-4-(2,6-dichlorobenzamido)-1H-pyrazole-3-carboxamide]",–,–,0.093 µM
